Positions of bridges follow the written chain, without caps; N, C: chain ends. Residues, ends and D or L forms follow the SMILES beside them. Chains are numbered I, II in the order given. No end group written: not given here.
Columns and labels:
[1] = GUV image analysis, shape descriptors (light sheet fluorescence microscopy); conditions: [(treated GUVs − control GUVs)/control GUVs]*100
From the text: GUVs appear dark against the background as a consequence of the difference in refractive index of GUVs contents (sucrose solution) and the surrounding medium (glucose solution). A white halo appears around the vesicle. Formation of pores and of protuberances may be thus evidenced. GUVs appear under differential interference contrast (DIC) round shaped with an average smaller area compared to GUVs treated with gH625 (Table 5, Figure 8). […] The addition of gH625-H7 to GUVs produced a similar effect of gH625 with the only difference that it induces an enhancement of the GUVs fusion tendency (Figure 8). gH625 and gH625-H7 enhance the mean area and perimeter of GUVs (Figure 9A,C). […] Main shape descriptor analysis confirms that the addition of gH625 or gH625-H7 induces an increase in area and perimeter also indicating a decrease in circularity and roundness parameters (Table 5).
LUVs and SUVs for fluorescence,circular dichroism and surface plasmon resonance, consisting of DOPG, DOPG/Chol (60/40 mol/mol), DOPC/Chol (60/40 mol/mol), and when necessary containing Rho-PE and NBD-PE, or ANTS and DPX, were prepared in 5 mM HEPES, 100 mM NaCl, pH 7.4[66]. Aliquots containing the necessary amount of lipids were dried from a chloroform solution with a nitrogen gas stream and lyophilized overnight to produce dry lipid films which were then resuspended in buffer and vortexed for 1 h; the lipid suspension was freeze-thawed 6 times to obtain multilamellar vesicles (MLV). […] Lipid concentrations of liposome suspensions were determined by phosphate analysis. […]
GUVs were used upon one day from preparation. Ten microliters of fluorescent GUVs were analyzed (before and after the addition of gH625 or gH625-H7) under a custom made light sheet fluorescent microscope equipped with five laser lines (λ = 375 nm Coherent Cube, λ = 405 nm Coherent Cube, λ = 473 nm Laserworld Blue-200, λ = 532 nm Coherent Compass 215 M-10 DPSS laser and λ = 632.8 nm Thorlabs HRR005S Helium-Neon laser), a motorized microscope MS-2000 XY stage with LX-4000 controller (Applied Scientific Instrumentation), a Focus Drive motorized Z stage (Tofra Inc.) and Nano-F200S nanopositioner controlled by Nanodrive® controller (Mad City Labs); all devices were managed by MicroManager software. […] The emerging fluorescence was detected by the Orca flash 2.8 sCMOS camera (Hamamatsu) driven by Dalsa Xcelera (Teledyne DALSA) PCIe card mounted on AMD FX-8 core 3.5 GHz, 32 Gb RAM pc running Windows 8.1 (Microsoft). […] GUV parameters were calculated by the Analyze particles ImageJ plugin; a minimum size of 5 μm^2 and circularity of at least […] Circularity=4π×[Area]/[Perimeter]^2 with a value of 1.0 indicating a perfect circle) was considered. […]

[2] = Lipid mixing (NBD/Rho FRET membrane fusion); conditions: lipid 0.1 mM, 25 °C
From the text: In order to gain insight into the ability to interact and perturb the lipid membrane, nitrobenzoxadiazole (NBD) and Rhodamine (Rho) were used as the donor and acceptor of fluorescence energy transfer. Dilution of labelled vesicles caused by peptide induced membrane fusion, determines a larger average distance between fluorescent and quenching lipids and thus a reduction in the fluorescence energy transfer efficiency. […] The three peptides interact more strongly with LUVs containing cholesterol, confirming the preference for more rigid membranes.
Figure 1 Peptide-promoted membrane fusion as determined by lipid mixing of gH625 (A), gH625-H7 (B) and gH625-G7 (C) in LUVs composed of: DOPG, DOPG/Chol 60/40 (mol/mol) and DOPC/Chol 60/40 (mol/mol). […] Lipid concentration is 0.1 mM. […] Panel D reports the peptide-promoted membrane fusion of the three peptides in DOPG/Chol LUVs 60/40 (mol/mol).
A cut off filter at 515 nm was used.

Molecule	Var % circularity versus GUVs alone [1]	Var % roundness versus GUVs alone [1]	lipid mixing activity in DOPG/Chol LUVs ([2]; compared to the other peptides)	lipid mixing activity in DOPG LUVs ([2]; average of three experiments)
I: HGLASTLTRWAHYNALIRAFGCGKKKK-NH2 / II: HGLASTLTRWAHYNALIRAFGCGKKKK-NH2 (disulfide I:22-II:22) [gH625-H7]	−33.33%	−18.18%	significantly higher activity	
CC[C@H](C)[C@H](NC(=O)[C@H](CC(C)C)NC(=O)[C@H](C)NC(=O)[C@H](CC(N)=O)NC(=O)[C@H](Cc1ccc(O)cc1)NC(=O)[C@H](Cc1c[nH]cn1)NC(=O)[C@H](C)NC(=O)[C@H](Cc1c[nH]c2ccccc12)NC(=O)[C@H](CCCNC(=N)N)NC(=O)[C@@H](NC(=O)[C@H](CC(C)C)NC(=O)[C@@H](NC(=O)[C@H](CO)NC(=O)[C@H](C)NC(=O)[C@H](CC(C)C)NC(=O)CNC(=O)[C@@H](N)Cc1c[nH]cn1)[C@@H](C)O)[C@@H](C)O)C(=O)N[C@@H](CCCNC(=N)N)C(=O)N[C@@H](C)C(=O)N[C@@H](Cc1ccccc1)C(N)=O [gH625] (H-HGLASTLTRWAHYNALIRAF-NH2)	−8.33%	−10.60%		less active than the other two

From PMC5572722, “Dimerization in tailoring uptake efficacy of the HSV-1 derived membranotropic peptide gH625” (Scientific Reports, 2017)
